What all share (assay type): functional
Test [1] can be described thus: Antioxidant activity assessed as ABTS radical scavenging activity at 100 ug/ml after 30 mins.
The subject of test [2] is Escherichia coli. Kind of test: Antibacterial activity against Escherichia coli after 24 hrs by two fold dilution method.
The test system of test [3] is Pseudomonas aeruginosa. Kind of test: Antibacterial activity against Pseudomonas aeruginosa after 24 hrs by two fold dilution method.
The test system of test [4] is Staphylococcus aureus. Kind of test: Antibacterial activity against Staphylococcus aureus after 24 hrs by two fold dilution method.
For test [5], the system named is Staphylococcus epidermidis. In words: Antibacterial activity against Staphylococcus epidermidis after 24 hrs by two fold dilution method.
Test [6] deals with Klebsiella pneumoniae. In words: Antibacterial activity against Klebsiella pneumoniae after 24 hrs by two fold dilution method.
The subject of test [7] is Aspergillus niger. In words: Antifungal activity against Aspergillus niger after 24 hrs by two fold dilution method.
The subject of test [8] is Candida albicans. Kind of test: Antifungal activity against Candida albicans after 24 hrs by two fold dilution method.
Test [9] in a line: Antifungal activity against Cryptococcus neoformans after 24 hrs by two fold dilution method.
Test [10] can be described thus: Antifungal activity against Microsporum audouinii after 24 hrs by two fold dilution method.
The nature of test [11]: Antioxidant activity assessed as reduction in AAPH free radical-induced linoleic acid peroxidation activity measured at 100 ug/ml by UV spectroscopic analysis. Also noted: scale not given: the % may be the effect or the level left.
The nature of test [12]: Cytotoxicity against human HepG2 cells after 48 hrs by MTT assay. To be noted: HepG2, 48 h. On the technique in general: Tetrazolium dyes change colour on reduction, which living cells bring about.
Test [13] is described as follows: Cytotoxicity against human MCF7 cells after 48 hrs by MTT assay. The conditions noted are these: MCF7, 48 h.
Test [14] is described as follows: Cytotoxicity against human HeLa cells after 48 hrs by MTT assay.

Converted amounts (≈) assume the structure as drawn.

The text below walks through data of ChEMBL document CHEMBL3872243, “Synthesis of new morpholine-connected pyrazolidine derivatives and their antimicrobial, antioxidant, and cytotoxic activities” (2017).

The MIC is the least concentration at which growth counts as inhibited. Usually GI50 stands for the concentration at which growth is held to half of that of the control. As usually defined, the LC50 is the concentration lethal to half of the exposed cells or organisms. One may read the TGI as the concentration giving total growth inhibition. For `O=[N+]([O-])c1ccc(N2C(O)CC(c3ccccc3)N2C(c2ccc(Cl)cc2)N2CCOCC2)c([N+](=O)[O-])c1` (stereo unspecified), the Activity in [1] was found to be 41.9%; in test [11] it was 32%. Further, the MIC is 0.5 µg/mL (≈ 0.926 µM) in test [2]; 64 µg/mL (≈ 119 µM) in test [3]; 64 µg/mL (≈ 119 µM) in test [4]; above 100 µg/mL in test [5]; 64 µg/mL (≈ 119 µM) in test [6]; 64 µg/mL (≈ 119 µM) in test [7]. Besides, the results for the minimum inhibitory concentration (MIC) in test [8], in test [9] and in test [10] were 1 µg/mL (≈ 1.85 µM), 64 µg/mL (≈ 119 µM) and 64 µg/mL (≈ 119 µM), respectively. The figures for the GI50 in [12], in test [13] and in [14] were 12.2 µM, 46.1 µM and 51 µM, respectively. For the same molecule, the LC50 is 42.8 µM in test [12], above 100 µM in [13] and above 100 µM in test [14]. Further, the TGI in [12] is 23.1 µM; in [13], 85.1 µM; in [14] it was 89.2 µM.
Take `COc1ccc(C(N2CCOCC2)N2C(c3ccccc3)CC(O)N2c2ccc([N+](=O)[O-])cc2[N+](=O)[O-])cc1` (stereo unspecified): the Activity in test [1] was 61.2%; in test [11], 59.1%. Moreover, the MIC is above 100 µg/mL in test [2]; above 100 µg/mL in test [3]; 4 µg/mL (≈ 7.47 µM) in test [4]; 8 µg/mL (≈ 14.9 µM) in test [5]; above 100 µg/mL in test [6]; above 100 µg/mL in test [7]. Also, the results for the MIC in test [8], in test [9] and in test [10] were above 100 µg/mL, above 100 µg/mL and 8 µg/mL (≈ 14.9 µM), respectively. The LC50 in [12], in test [13] and in test [14] was above 100 µM each time. Besides, halving of growth in [14] (GI50) required 31.8 µM. This molecule also came in with a TGI in test [14] of 63.2 µM.
